Key:
HL-60 cells = experiment: MTT-dye reduction cytotoxicity assay, HL-60; format: cell-based, human; conditions: for IC50: Homo sapiens, HL-60, 72 h treatment, read-out: IC50 exp, HL-60; for SI (selectivity index) HL-60: SI = IC50 (HEK-293)/IC50 (cancer cells)
Method: (§1) The research included four leukemic and three cancer human cell lines: HL-60 (acute myeloid leukemia), SKW-3 (KE-37 derivative) (T-cell leukemia), BV-173 and K-562 (chronic myeloid leukemia), MDA-MB-231 (ER-negative breast carcinoma), MCF-7 (ER-positive breast adenocarcinoma), and SaOS-2 (osteogenic sarcoma). The cells were provided from the German Collection of Microorganisms and Cell Cultures (DSMZ, Braunschweig, Germany). The solid tumor cell lines (MDA-MB-231, MCF-7, and SaOS-2) were incubated in 90% RPMI-1640 supplemented with 10% fetal bovine serum (FBS), non-essential amino acids, 1 mM sodium pyruvate, and […] human insulin as monolayer adherent cultures. The remaining cell lines were cultivated as a suspension culture in cell culture flasks at 37 °C in an incubator “BB 16-Function Line” Heraeus (Kendro, Hanau, Germany) with humidified atmosphere and 5% CO2 under standard conditions–RPMI-1640 liquid media supplemented with 10% FBS and 2 mM L-glutamine. The cells were kept in log phase by supplementing with fresh media after removing cell suspension aliquots two or three times each week.
(§2) At least eight wells were used for each concentration.

KE-37 cells = experiment: MTT-dye reduction cytotoxicity assay, KE-37; format: cell-based, human; conditions: for IC50: Homo sapiens, KE-37, 72 h treatment, read-out: IC50 exp, KE-37; for SI (selectivity index) KE-37: SI = IC50 (HEK-293)/IC50 (cancer cells)
Method: as §1, §2

K-562 cells = experiment: MTT-dye reduction cytotoxicity assay, K-562; format: cell-based, human; conditions: for IC50: Homo sapiens, K562, 72 h treatment, read-out: IC50 exp, K-562; for SI (selectivity index) K-562: SI = IC50 (HEK-293)/IC50 (cancer cells)
Method: as §1, §2

BV-173 cells = experiment: MTT-dye reduction cytotoxicity assay, BV-173; format: cell-based, human; conditions: for IC50: Homo sapiens, BV-173, 72 h treatment, read-out: IC50 exp, BV-173; for SI (selectivity index) BV-173: SI = IC50 (HEK-293)/IC50 (cancer cells)
Method: as §1, §2

SaOS-2 cells = experiment: MTT-dye reduction cytotoxicity assay, SaOS-2; format: cell-based, human; conditions: for IC50: Homo sapiens, SAOS-2, 72 h treatment, read-out: IC50 exp, SaOS-2; for SI (selectivity index) SaOS-2: SI = IC50 (HEK-293)/IC50 (cancer cells)
Method: as §1, §2

MDA-MB-231 cells = experiment: MTT-dye reduction cytotoxicity assay, MDA-MB-231; format: cell-based, human; conditions: for IC50: Homo sapiens, MDA-MB-231, 72 h treatment, read-out: IC50 exp, MDA-MB-231; for SI (selectivity index) MDA-MB-231: SI = IC50 (HEK-293)/IC50 (cancer cells)
Method: as §1, §2

MCF-7 cells = experiment: MTT-dye reduction cytotoxicity assay, MCF-7; format: cell-based, human; conditions: for IC50: Homo sapiens, MCF7, 72 h treatment, read-out: IC50 exp, MCF-7; for SI (selectivity index) MCF-7: SI = IC50 (HEK-293)/IC50 (cancer cells)
Method: as §1, §2

[1] = MTT-dye reduction cytotoxicity assay, normal HEK-293; conditions: human, HEK-293 cells (normal human embryonic kidney)
Method: (§3) To assess the selectivity of the newly synthesized derivatives, they were tested on the normal human embryonic kidney HEK-293 cell line. The derived IC50 values were used to calculate the selectivity index according to the formula SI = IC50 (normal cells)/IC50 (cancer cells).
The cytotoxic activity of the examined substances was determined using Mossman’s MTT [3-(4,5-dimethylthiazol-2-yl)-2,5-diphenyltetrazolium bromide] dye reduction assay. The approach is based on the reduction of the yellow tetrazolium salt MTT to a violet formazan in live cells via mitochondrial succinate dehydrogenase. In brief, exponentially developing cells were seeded at a density of 1 × 10^5 cells per ml in 96-well flat-bottomed microplates (100 μL/well), and after 24 h of incubation at 37 °C, they were treated to varied doses of the tested substances for 72 h. At least eight wells were used for each concentration. Following the incubation with the test compounds, aliquots of 10 μL MTT solution (10 mg/mL in PBS) were applied to each well. The microplates were then incubated at 37 °C for 4 h before the MTT-formazan crystals were dissolved with 100 μL/well 5% HCOOH in 2-propanol. The MTT-formazan absorbance was measured at 580 nm using a microprocessor-controlled microplate reader (Labexim LMR-1).
The cell survival data were standardized as a percentage of the untreated control (set as 100% viability). The biological data were processed statistically using Student’s t-test, where values were considered statistically significant at p ≤ 0.05. The corresponding IC50 values were obtained to allow quantitative merit for the assessment of the relative potencies of the compounds under investigation. Each data point represents the arithmetic mean ± standard deviation (sd) of at least eight independent experiments.

[2] = system: HL-60, KE-37, K-562, BV-173, SaOS-2, MDA-MB-231, MCF-7 cell lines; experiment: Average over the cancer cell lines tested (LE, SI); format: cell-based, human; conditions: average over seven cancer cell lines
Method: as §3
The training set of salicylaldehyde hydrazones contained 11 compounds synthesized and tested before in our Lab. Their anticancer activities were measured and expressed as IC50 values on the following cell lines: HL-60, KE-37, K-562, BV-173, SaOS-2, MDA-MB-231, and MCF-7. For the purposes of SAR analysis, the IC50 values were converted in p-units (−logIC50) and ligand efficiencies (LEs) were calculated according to the formula: LE = pIC50/n, where n is the count of non-hydrogen atoms in the molecule.

[3] = compound 13 versus benzoyl analog

SMILES | IC50 (HL-60 cells) [nM] | SI (selectivity index) HL-60 (HL-60 cells) | IC50 (KE-37 cells) [nM] | SI (selectivity index) KE-37 (KE-37 cells) | IC50 (K-562 cells) [nM] | SI (selectivity index) K-562 (K-562 cells) | IC50 (BV-173 cells) [nM] | SI (selectivity index) BV-173 (BV-173 cells) | IC50 (SaOS-2 cells) [nM] | SI (selectivity index) SaOS-2 (SaOS-2 cells) | IC50 (MDA-MB-231 cells) [nM] | SI (selectivity index) MDA-MB-231 (MDA-MB-231 cells) | IC50 (MCF-7 cells) [nM] | SI (selectivity index) MCF-7 (MCF-7 cells) | IC50 at 72 h [1] [nM] | average SI [2] | melting point [°C] | other results
COc1ccc(C=NNC(=O)c2ccc(O)cc2)c(O)c1 [Compound 13, 4-methoxysalicylaldehyde-4-hydroxybenzoylhydrazone] | 8900 ± 2470 | 6 | 10800 ± 2810 | 5 | 8750 ± 1290 | 6 | 3880 ± 1160 | 15 | 26000 ± 3650 | 2 | 2900 ± 320 | 20 | 1380 ± 80 | 41 | 56700 ± 4350 | 14 | 216 to 217 | reduction of cytotoxicity by hydroxy group in the benzoyl ring, K-562 (K-562 cells; [3]): 292 fold; reduction of cytotoxicity by hydroxy group in the benzoyl ring, BV-173 (BV-173 cells; [3]): 3 fold; reduction of cytotoxicity by hydroxy group in the benzoyl ring, sarcomic cells (SaOS-2 cells; [3]): 15.5 fold; reduction of cytotoxicity by hydroxy group in the benzoyl ring, MDA-MB-231 (MDA-MB-231 cells; [3]): 1.25 fold; reduction of cytotoxicity by hydroxy group in the benzoyl ring, MCF-7 (MCF-7 cells; [3]): 6 fold
COc1ccc(C=NNC(=O)c2ccccc2)c(O)c1 [Compound 12, 4-methoxysalicylaldehyde benzoylhydrazone] | 40 ± 5 | 941 | 1990 ± 170 | 19 | 30 ± 2 | 1254 | 1210 ± 110 | 31 | 1680 ± 150 | 22 | 2310 ± 250 | 16 | 230 ± 20 | 164 | 37600 ± 3410 | 350 | 182 to 183 | 

Source: article PMC10138506, “Design, Synthesis and Cytotoxic Activity of Novel Salicylaldehyde Hydrazones against Leukemia and Breast Cancer” (International Journal of Molecular Sciences, 2023)
